According to patent publication US12594339B2, “Lipid prodrugs of JAK inhibitors and uses thereof” (Seaport Therapeutics, Inc., priority 2019, dated 2026):

Columns and labels:
[1] = system: plasma supplemented with lipoprotein lipase (LPL); assay: In vitro release of therapeutic agent from prodrugs in plasma supplemented with lipoprotein lipase; format: in vitro ADME; settings: rat and/or human plasma supplemented with LPL; for In vitro hydrolysis profile: conversion to monoglyceride form / In vitro hydrolysis profile: further conversion products: 37° C., 0-180 min
Description: In order to probe the release of free drug from TG prodrugs in the systemic circulation, prodrugs are incubated with plasma (rat, mouse, dog, pig or human) supplemented with lipoprotein lipase (LPL, 200 IU/ml). LPL is a key enzyme required for the hydrolysis of lipoprotein associated TG in the systemic circulation and is therefore expected to be a key contributor to lipolysis of the re-esterified drug-TG construct in plasma, largely via liberation of fatty acids in the sn-1 and the sn-3 position of the TG-mimetic, prior to drug release from the 2′ position via esterase hydrolysis. […] is tethered to the luminal surface of vascular endothelial cells under physiological conditions. In the current in vitro studies, plasma is therefore supplemented with LPL to better reflect the in vivo situation.
To start hydrolysis, 10 μl of LPL solution (10,000 IU/ml) was added to a mixture of 10 μl of prodrug solution (1 mg/ml dissolved in acetonitrile) and 500 μl of blank plasma. The mixture was incubated at 37° C. Samples (20 μl) of the incubation solution were taken at 0, 5, 15, 30, 60, 90, 120 and 180 minutes post-incubation and added to 180 μl of MeCN to stop lipolysis. The mixture was vortexed and centrifuged at 4500×g for 5 minutes to precipitate proteins prior to analysis. The supernatant was analyzed by HPLC-MS/MS for the potential products (MG form, acid form, and free drug) of prodrug hydrolysis.
The in vitro hydrolysis profile of selected prodrug compounds was determined in rat and/or human plasma supplemented with LPL. […] The acid intermediate was not observed for prodrug I-5. The acid intermediates are believed to have the structures shown in Table 6, below, based on HPLC-MS data.

[2] = Lymphatic transport assay in mesenteric lymph-duct cannulated rats; format: in vivo, rat; settings: total tofacitinib related compound (lymph hydrolysed before assay), intraduodenal infusion, anaesthetised mesenteric lymph-duct cannulated rats, lymph collected up to 8 h
Description: In order to assess the lymphatic transport of disclosed lipid prodrugs in rats, the mesenteric lymph ducts of the rats used in this study were cannulated to allow continual collection of mesenteric lymph. Lipid formulations containing the compound of interest were then administered to the animals, lymph was collected, and drug concentrations in the lymph samples were quantified.
Lipid-based formulations of the compounds of the invention or control compounds were prepared as previously described (Trevaskis, N. L. et al., Pharmaceutical Research, 2005, 22(11), 1863-1870, WO 2016/023082, and WO 2017/041139, hereby incorporated by reference).
In brief, either 1 or 2 mg of test prodrug, 40 mg oleic acid and 25 mg Tween 80 were mixed in a glass vial and incubated at 37° C. for 12-18 h to equilibrate. An aqueous phase consisting of 5.6 ml phosphate buffered saline (PBS, pH 7.4) was subsequently added to the lipid phase (tofacitinib was dissolved in PBS for the preparation of tofacitinib-containing formulations) and the formulation emulsified by ultrasonication with a Misonix XL 2020 ultrasonic processor (Misonix, Farmingdale, NY, USA) equipped with a 3.2-mm microprobe tip running at 30% of the maximal amplitude of 240 μm and a frequency of 20 kHz for 2 min at room temperature. Doses for administering to more than one animal can be prepared in one batch by suitably increasing the quantities given above. Drug/prodrug concentrations in all formulations were verified using HPLC-MS.
Male Sprague-Dawley (SD) rats were selected for the lymphatic transport studies. Rats (typically 240-320 g) were maintained on a standard diet and fasted overnight with free access to water prior to experiments.
Anesthetized rats were placed on a heated pad at 37° C. and cannulas inserted into the duodenum (for formulation administration and rehydration), mesenteric lymph duct (for lymph collection), and carotid artery (in cases where blood collection was conducted). Post-surgery, rats were re-hydrated for 0.5 h via intraduodenal infusion of normal saline at 2.8 mL/h. The lipid formulations were infused into the duodenum at 2.8 mL/h for 2 h after which, normal saline was infused at 2.8 mL/h for the remainder of the experiment. Lymph was continuously collected for up to 8 h into pre-weighed Eppendorf tubes containing 10 μL of 1,000 IU/mL heparin. The collection tubes were changed hourly and lymph flow was measured gravimetrically. Aliquots of hourly lymph samples were stored at −20° C. prior to assay.
For most compounds, drug concentration in lymph is expressed as total drug and includes free drug and drug associated with different glycerides. Lymph samples were first treated with a lipase or other appropriate conditions to liberate free active agent prior to measurement of active agent levels in the lymph. Treatment with a lipase or other hydrolysis conditions liberates free active agent from any corresponding re-esterified glycerides. Porcine pancreatic lipase is appropriate for this purpose. Alternatively, hydrolysis with 0.5 M NaOH may be used.
For certain compounds, drug concentration was measured for the intact lipid prodrug specifically, without exposing the lymph samples to hydrolysis conditions.
Transport of compounds into lymph during each hourly collection period was calculated from the product of the volume of lymph collected and the measured concentrations in lymph. For fluorescent or fluorescently-labelled compounds, the concentrations of total compound may be measured by fluorescence spectroscopy without hydrolysis.
Table 5 summarizes lymphatic transport of total tofacitinib related compound (% of administered dose) following intraduodenal infusion to anaesthetised, mesenteric lymph-duct cannulated rats. Data are presented as mean±SD when n≥3 or mean± range when n=2. […]

[3] = molecular target: T1, porcine pancreatic lipase (Sus scrofa, UniProt P00591); assay: In vitro hydrolysis by porcine pancreatic lipase in simulated intestinal micellar solution; format: in vitro ADME; settings: for In vitro hydrolysis: acid intermediates: HPLC-MS; for In vitro hydrolysis: conversion to monoglyceride form / In vitro hydrolysis: fate of the monoglyceride: simulated intestinal micellar solution, 37° C., 0-180 min
T1 construct: dispersion of 1 g porcine pancreatin in 5 ml of lipolysis buffer; from tissue; host or cells: porcine pancreatin (pancreas extract), supernatant after centrifugation
T1 sequence (P00591 1-450): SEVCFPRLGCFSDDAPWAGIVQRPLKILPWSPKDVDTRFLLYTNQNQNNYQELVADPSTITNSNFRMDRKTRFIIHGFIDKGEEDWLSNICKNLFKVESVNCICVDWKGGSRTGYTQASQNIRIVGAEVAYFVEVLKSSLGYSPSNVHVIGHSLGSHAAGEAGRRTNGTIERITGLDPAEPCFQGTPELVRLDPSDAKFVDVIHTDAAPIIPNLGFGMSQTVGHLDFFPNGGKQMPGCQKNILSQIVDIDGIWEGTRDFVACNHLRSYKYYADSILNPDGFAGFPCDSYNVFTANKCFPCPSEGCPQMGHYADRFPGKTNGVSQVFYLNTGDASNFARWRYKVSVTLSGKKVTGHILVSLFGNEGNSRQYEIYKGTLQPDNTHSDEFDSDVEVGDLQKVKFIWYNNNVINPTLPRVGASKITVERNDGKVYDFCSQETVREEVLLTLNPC
T1 sequence (P02703 23-112 partner): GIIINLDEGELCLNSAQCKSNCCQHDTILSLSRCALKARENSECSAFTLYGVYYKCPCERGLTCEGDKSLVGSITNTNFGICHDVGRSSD
Description: Hydrolysis of test compounds in vitro was performed via incubation with porcine pancreatic lipase. This provides a more reproducible source of pancreatic enzymes, facilitates enhanced experimental throughput, and is also a greater challenge than collected rat enzymes (as described below, since enzyme activity in rat intestinal fluid is low). Briefly, pancreatic lipase solution was prepared prior to the hydrolysis experiment by dispersion of 1 g porcine pancreatin in 5 ml of lipolysis buffer and 16.9 μL of 0.5 M NaOH. The suspension was mixed well and centrifuged at 3500 rpm for 15 minutes at 5° C. to provide a supernatant. An amount of 1000 mL of lipolysis buffer was prepared with 0.474 g of tris-maleate (2 mM), 0.206 g of CaCl2·H2O (1.4 mM) and 8.775 g of NaCl (150 mM) adjusted with NaOH to pH 6.5. To assess the potential for prodrug hydrolysis in the intestine, 20 μL of prodrug solution (1 mg/mL dissolved in acetonitrile), 900 μL of simulated intestinal micellar solution [prepared with 0.783 g of NaTDC (3 mM) and 0.291 g of phosphatidyl choline (0.75 mM) in 500 mL lipolysis buffer] and 100 μL of enzyme solution were incubated at 37° C. 20 μL samples of the incubation solution were taken at 0, 5, 10, 15, 30, 60, 90, 120 and 180 minutes post incubation and added to 180 μL of MeCN to stop lipolysis. The mixture was vortexed and centrifuged at 5000 rpm for 5 minutes to precipitate proteins prior to analysis. The supernatant was analyzed by HPLC-MS for residual compound concentrations, and the potential products of compound hydrolysis analyzed.
On incubation with digestive enzymes, the monoglyceride forms of the prodrugs are formed very rapidly. The stability in simulated intestinal conditions is therefore better assessed by the stability of the monoglyceride form that is generated by the initial digestion process. The monoglyceride form should remain intact to be absorbed and re-esterified in the enterocyte prior to entry into the lymphatics. A comparison of the stability profiles of the monoglyceride forms of test compounds during in vitro incubation with porcine pancreatic lipase (or freshly collected rat bile and pancreatic fluid (BPF), as described below) was used to evaluate the influence of linker structure on the stability of the monoglyceride intermediates.

**Q.** With `CCCCCCCCCCCCCCCC(=O)OCC(COC(=O)CCCCCCCCCCCCCCC)OC(=O)CC(C)CC(=O)OC(C)n1ccc2c(N(C)[C@H]3CN(C(=O)CC#N)CC[C@H]3C)ncnc21` (stereo partly drawn) [I-5, 1-(1,3-bis(palmitoyloxy)propan-2-yl) 5-(1-(4-(((3R,4R)-1-(2-cyanoacetyl)-4-methylpiperidin-3-yl)(methyl)amino)-7H-pyrrolo[2,3-d]pyrimidin-7-yl)ethyl) 3-methylpentanedioate] as the molecule, how does the “In vitro hydrolysis profile: conversion to monoglyceride form” value [1] read?
**A.** rapidly converted into their monoglyceride form

**Q.** And the “In vitro hydrolysis profile: further conversion products” value [1]?
**A.** further conversion to tofacitinib and an acid intermediate

**Q.** What about the “In vitro hydrolysis profile: acid intermediate” value ([1]; HPLC-MS) of the same molecule?
**A.** not observed

**Q.** And the “Cumulative lymphatic transport % dose” value [2]?
**A.** D (lymphatic transport assay result of less than 0.05% (<0.05%))

**Q.** What about the “In vitro hydrolysis: acid intermediates” value [3] of the same molecule?
**A.** not observed

**Q.** What about the “In vitro hydrolysis: conversion to monoglyceride form” value [3] of the same molecule?
**A.** rapidly converted to the prodrug's monoglyceride form

**Q.** And the “In vitro hydrolysis: fate of the monoglyceride” value [3]?
**A.** converted to free parent tofacitinib over time

**Q.** Which “In vitro hydrolysis profile: conversion to monoglyceride form” value [1] does the source give for `CCCCCCCCCCCCCCCC(=O)OCC(COC(=O)CCCCCCCCCCCCCCC)OC(=O)CC(C)CCCCCCCC(C)C(=O)n1ccc2c(N(C)[C@H]3CN(C(=O)CC#N)CC[C@H]3C)ncnc21` (stereo partly drawn) [I-6, 2-((12-(4-(((3R,4R)-1-(2-cyanoacetyl)-4-methylpiperidin-3-yl)(methyl)amino)-7H-pyrrolo[2,3-d]pyrimidin-7-yl)-3,11-dimethyl-12-oxododecanoyl)oxy)propane-1,3-diyl dipalmitate] here?
**A.** rapidly converted into their monoglyceride form

**Q.** And the “In vitro hydrolysis profile: further conversion products” value [1]?
**A.** further conversion to tofacitinib and an acid intermediate

**Q.** What about the “Cumulative lymphatic transport % dose” value [2] of the same molecule?
**A.** B (lymphatic transport assay result between 1% and 10% (1%-10%))

**Q.** What about the “In vitro hydrolysis: acid intermediates” value [3] of the same molecule?
**A.** not observed

**Q.** And the “In vitro hydrolysis: conversion to monoglyceride form” value [3]?
**A.** rapidly converted to the prodrug's monoglyceride form

**Q.** And the “In vitro hydrolysis: fate of the monoglyceride” value [3]?
**A.** converted to free parent tofacitinib over time
